Experimental data from US4031218A, “7-(2,3-Dihydroxypropyl-1,3-di-n-propylxanthine and a pharmaceutical composition containing same useful as a bronchial muscle relaxant” (Mallinckrodt, Inc., priority 1976, dated 1977).
Entries after “also recorded” stand apart in the source; their conditions may differ.

How the values were obtained:
human bronchodilator = test: Estimated human bronchodilator dose equivalent to recommended theophylline dose; settings: based on recommended theophylline dose and relative bronchodilator activities
From the text: Experimental results are summarized in Table I wherein pharmacologic and toxicologic activities relative to that of theophylline are expressed on a molar basis.
^a - Dose: Based on the recommended dose for theophylline and the
relative activities in the bronchodilator experiments.

[1] = prior art statement; cited from earlier work
dogs [2] = test: Acute intravenous diuretic evaluation in dogs; settings: for Diuretic Activity, I.V. Dogs: estimated at HBD; for I.V. Diuretic (Dogs), relative molar activity: relative to theophylline, molar basis
Description: Acute Intravenous Evaluation in Dogs
Compounds were tested in two dogs each. Animals were initially hydrated with 30 ml/kg of water, orally; then anesthetized with pentobarbital sodium, 30-35 mg/kg i.v. One femoral vein was cannulated and a constant intravenous infusion of warm saline (3 ml/min.) was begun and continued throughout the experiment. The contralateral femoral vein was also cannulated for intravenous drug administration. Urine was directly collected from bilateral ureter cannulae. After a 20-minute control collection period, the first dose of the appropriate compound was injected and urine was collected at 20-minute intervals for a period of one hour. This procedure was repeated for two additional doses of the same compound. Urine volume, pH, and sodium and potassium levels were determined for each 20-minute collection period and sums were obtained for the one-hour period after each dose. Test results, reported as successive changes in each parameter, were compared accordingly.

dogs [3] = test: Oral minimum emetic dose in dogs; type: in vivo, dog; settings: for Emetic effect, P.O. Dogs: estimated at HBD; for Oral Emetic (Dogs), relative molar activity: relative to theophylline, molar basis
Description: 2. Oral Minimum Emetic Dose
The minimum dose of each compound which causes emesis after oral administration was estimated in a group of five adult mongrel dogs of either sex. Logarithmically increasing or decreasing (depending upon response) doses of each compound were administered orally via a flexible stomach tube. The compounds were dissolved in distilled water in concentrations to allow a constant volume dose of 5 ml/kg. […] Onset, frequency, and duration of emetic episodes as well as signs of CNS stimulation were also recorded.

[4] = prior art statement; listed as dyphylline; cited from earlier work
[5] = tested on: guinea pig tracheal strip; test: Isolated trachea preparation (in vitro tracheal strip), pilocarpine-contracted; type: cell-based; settings: relative to theophylline = 1.00, molar basis
Description: With the exception of theophylline, all compounds were administered as the free base dissolved or suspended in appropriate aqueous vehicles. […] The ethylenediamine portion of the molecule is pharmacologically inert, but renders solubility and convenience of use (Simons et al., S. Med. Journ. 68:802, 1975). For the purpose of comparison, aminophylline was considered to contain 80% free theophylline by weight (Piafsky and Ogilvie, New England J. Med. 292: 1218, 1975). Final comparisons were always based on the calculated dose of theophylline. Because of obvious differences in molecular weights, all compounds were compared on a molar basis rather than on absolute weight.
1. Isolated Trachea Preparation
The in vitro bronchodilator activity of each compound was estimated on the spirally cut guinea pig tracheal strip preparation as described by Constantine, (J. Pharm. Pharmacol. 17:384, 1965). Large Camm English Short Hair male guinea pigs (800-1200 gm.) were employed in order to obtain three spiral tracheal strips from one animal. Strips were suspended in 50 ml. tissue baths containing modified Krebs-Henseleit solution at 38° C. and aerated with 95% O2 /5% CO2. Pilocarpine HCl, 1 mg/liter, was added to the solution to maintain a sustained contraction and to promote rapid recovery of the muscle. A Grass FT 0.03 force displacement transducer was used to electronically record muscle response. Concentration-relaxation relationships were obtained for each compound by logarithmically increasing bath concentration until maximum (100%) relaxation was observed. Tissues were washed between doses and allowed 30 minutes to recover. Linear regression analysis of percent response vs. log of bath concentration allowed calculation of a slope and EC50 value (concentration producing 50% of maximum relaxation) for each compound. Each dose of each compound was tested a minimum of six times.

rats = test: Acute oral diuretic evaluation in rats; type: in vivo, Sprague Dawley rats; settings: relative to theophylline, molar basis
Description: 1. Acute Oral Evaluation in Rats
The oral diuretic effect of each compound was estimated in rats by a modification of the method described by Lipschitz et al. (J. Pharmacol. Exp. Ther. 79:97, 1943). Male Sprague Dawley rats (Carworth) weighing between 153 and 220 gms were fasted overnight. Groups of five animals each were administered three appropriate logarithmically spaced doses of each compound dissolved in saline in a constant volume dose of 25 ml/kg via an oral feeding needle. Controls received the same dose of only saline. The rats were then placed in individual metabolism cages and deprived of food and water for the remainder of the experiment. At the end of six hours, each rat was forced to expel urine in the bladder by pulling on the base of the tail. Parameters measured included urine volume, pH, and sodium and potassium excretion as measured by atomic absorption analysis. Six hour values were averaged for each dose of compound and for controls and were compared accordingly.

[6] = Acute toxicity and side effects; settings: compared with theophylline
[7] = U.S. Pat. No. 2,756,229, in comparison with theophylline; cited from earlier work

Cn1c(=O)c2c(ncn2CC(O)CO)n(C)c1=O (stereo not shown) [Compound II, 7-(2,3-dihydroxypropyl) 1,3-dimethylxanthine]
Estimated Human Bronchodilator Dose (HBD), per 70 kg (human bronchodilator): 2353 mg/70 kg | Estimated Human Bronchodilator Dose (HBD), per kg (human bronchodilator): 33.6 mg/kg | Water solubility in words (prior art) [1]: high water solubility | Diuretic Activity, I.V. Dogs (dogs [2]): Moderate | I.V. Diuretic (Dogs), relative molar activity (dogs [2]): 0.26 | MED (minimum emetic dose), P.O. Dogs (dogs [3]): > 362 mg/kg | Emetic effect, P.O. Dogs (dogs [3]): None | Oral Emetic (Dogs), relative molar activity (dogs [3]): < 0.50 | Bronchodilator activity / potency in words (prior art) [4]: less bronchodilator potency than theophylline; also recorded: markedly decreases overall potency | Bronchodilator activity, In-Vitro (Tracheal Strip), relative molar activity [5]: 0.16 | Oral Diuretic (Rats), relative molar activity (rats): 0.71

CCCn1c(=O)c2c(ncn2CC(O)CO)n(CCC)c1=O (stereo not shown) [Compound V, 7-(2,3-dihydroxypropyl)-1,3-di-n-propylxanthine]
Estimated Human Bronchodilator Dose (HBD), per 70 kg (human bronchodilator): 299 mg/70 kg | Estimated Human Bronchodilator Dose (HBD), per kg (human bronchodilator): 4.3 mg/kg | Acute toxicity, emetic, cardiovascular, CNS and diuretic effects in words [6]: less active in regard to acute toxicity as well as undesirable cardiovascular, CNS, diuretic and oral emetic effects | Diuretic Activity, I.V. Dogs (dogs [2]): Mild | I.V. Diuretic (Dogs), relative molar activity (dogs [2]): 0.59 | MED (minimum emetic dose), P.O. Dogs (dogs [3]): 442 mg/kg | Emetic effect, P.O. Dogs (dogs [3]): None | Oral Emetic (Dogs), relative molar activity (dogs [3]): 0.50 | Bronchodilator activity, In-Vitro (Tracheal Strip), relative molar activity [5]: 0.99 | Oral Diuretic (Rats), relative molar activity (rats): 1.05

CCCn1c(=O)c2c(ncn2CC(C)O)n(CCC)c1=O (stereo not shown) [III, 7-(2-hydroxypropyl) 1,3-di-n-propylxanthine]
Estimated Human Bronchodilator Dose (HBD), per 70 kg (human bronchodilator): 99 mg/70 kg | Estimated Human Bronchodilator Dose (HBD), per kg (human bronchodilator): 1.4 mg/kg | Acute toxicity, emetic, cardiovascular, CNS and diuretic effects in words [6]: increased undesirable emetic, cardiovascular and central nervous system (CNS) effects | Diuretic activity in words (prior art) [7]: strong diuretics | Diuretic Activity, I.V. Dogs (dogs [2]): Mild | I.V. Diuretic (Dogs), relative molar activity (dogs [2]): 0.50 | MED (minimum emetic dose), P.O. Dogs (dogs [3]): 0.8 mg/kg | Emetic effect, P.O. Dogs (dogs [3]): Severe | Oral Emetic (Dogs), relative molar activity (dogs [3]): 251.00 | Bronchodilator activity, In-Vitro (Tracheal Strip), relative molar activity [5]: 1.86 | Oral Diuretic (Rats), relative molar activity (rats): 7.29

CCCn1c(=O)c2c(ncn2CCCO)n(CCC)c1=O [IV, 7-(3-hydroxypropyl)-1,3-di-n-propylxanthine]
Estimated Human Bronchodilator Dose (HBD), per 70 kg (human bronchodilator): 347 mg/70 kg | Estimated Human Bronchodilator Dose (HBD), per kg (human bronchodilator): 5.0 mg/kg | Acute toxicity, emetic, cardiovascular, CNS and diuretic effects in words [6]: increased undesirable emetic, cardiovascular and central nervous system (CNS) effects | Diuretic activity in words (prior art) [7]: strong diuretics | Diuretic Activity, I.V. Dogs (dogs [2]): Mild | I.V. Diuretic (Dogs), relative molar activity (dogs [2]): 0.45 | MED (minimum emetic dose), P.O. Dogs (dogs [3]): 33 mg/kg | Emetic effect, P.O. Dogs (dogs [3]): None | Oral Emetic (Dogs), relative molar activity (dogs [3]): 6.00 | Bronchodilator activity, In-Vitro (Tracheal Strip), relative molar activity [5]: 2.05 | Oral Diuretic (Rats), relative molar activity (rats): 1.48
